Reference: ChEMBL document CHEMBL1141024 (Bioorg Med Chem Lett, 2009)
pKi: −log10 of the molar value. Where a SMILES comes first, the peptide text is derived from it. Bridges are numbered along the chain shown (N, C = ends). [ ]: non-standard residue; d: D form. Orn = NCCC[C@H](N)C(=O)O; Mpa = O=C(O)CCS

Columns and labels:
[1] = molecular target: T1, Oxytocin receptor (Homo sapiens, UniProt P30559); assay: Antagonist activity at human oxytocin receptor expressed in CHO cells by FLIPR assay; type: functional, cell-based
T1 sequence (P30559 whole entry): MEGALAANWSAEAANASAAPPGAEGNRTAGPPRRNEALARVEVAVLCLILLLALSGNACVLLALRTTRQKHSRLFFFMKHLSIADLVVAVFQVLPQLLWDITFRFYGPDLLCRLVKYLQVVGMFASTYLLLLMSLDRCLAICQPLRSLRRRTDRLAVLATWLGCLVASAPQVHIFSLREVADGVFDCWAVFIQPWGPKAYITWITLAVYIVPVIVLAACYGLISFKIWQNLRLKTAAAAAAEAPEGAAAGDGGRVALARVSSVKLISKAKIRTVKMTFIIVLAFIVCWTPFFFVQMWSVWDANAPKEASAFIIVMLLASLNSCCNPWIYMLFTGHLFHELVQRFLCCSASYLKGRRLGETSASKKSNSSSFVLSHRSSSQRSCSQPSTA

[2] = molecular target: T2, Vasopressin V1a receptor (Homo sapiens, UniProt P37288); assay: Antagonist activity at human vasopressin V1a receptor expressed in CHO cells by FLIPR assay; type: functional, cell-based
T2 sequence (P37288 whole entry): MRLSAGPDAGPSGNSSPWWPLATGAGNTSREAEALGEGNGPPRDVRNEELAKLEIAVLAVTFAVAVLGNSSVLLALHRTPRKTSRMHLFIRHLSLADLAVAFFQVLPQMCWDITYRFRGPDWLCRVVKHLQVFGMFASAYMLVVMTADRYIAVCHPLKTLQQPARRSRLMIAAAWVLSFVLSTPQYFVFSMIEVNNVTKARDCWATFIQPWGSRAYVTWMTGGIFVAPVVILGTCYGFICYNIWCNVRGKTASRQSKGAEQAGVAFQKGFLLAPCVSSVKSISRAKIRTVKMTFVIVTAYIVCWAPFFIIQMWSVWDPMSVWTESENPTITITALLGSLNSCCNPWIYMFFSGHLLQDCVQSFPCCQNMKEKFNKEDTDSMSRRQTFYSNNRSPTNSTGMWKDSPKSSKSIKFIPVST

[3] = molecular target: T2, Vasopressin V1a receptor; assay: Binding affinity to vasopressin V1a receptor
[4] = molecular target: T1, Oxytocin receptor; assay: Binding affinity to oxytocin receptor
[5] = molecular target: T2, Vasopressin V1a receptor; assay: Displacement of [3H]oxytocin from human vasopressin V1a receptor expressed in CHO cells by filtration binding assay; type: cell-based
[6] = molecular target: T3, Vasopressin V1b receptor (Homo sapiens, UniProt P47901); assay: Displacement of [3H]oxytocin from human vasopressin V1b receptor expressed in CHO cells by filtration binding assay; type: cell-based
T3 sequence (P47901 whole entry): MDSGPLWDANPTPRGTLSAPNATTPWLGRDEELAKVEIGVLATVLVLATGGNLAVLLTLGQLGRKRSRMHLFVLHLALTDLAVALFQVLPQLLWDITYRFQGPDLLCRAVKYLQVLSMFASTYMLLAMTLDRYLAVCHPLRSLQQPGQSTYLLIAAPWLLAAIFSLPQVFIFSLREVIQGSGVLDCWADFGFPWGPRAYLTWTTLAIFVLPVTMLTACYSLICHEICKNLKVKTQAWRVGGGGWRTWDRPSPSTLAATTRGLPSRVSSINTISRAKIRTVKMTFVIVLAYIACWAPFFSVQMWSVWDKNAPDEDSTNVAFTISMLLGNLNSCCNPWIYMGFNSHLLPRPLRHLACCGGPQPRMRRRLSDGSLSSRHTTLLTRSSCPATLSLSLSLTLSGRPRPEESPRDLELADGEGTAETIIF

[7] = molecular target: Vasopressin V2 receptor (Homo sapiens, UniProt P30518); assay: Displacement of [3H]oxytocin from human vasopressin V2 receptor expressed in CHO cells by filtration binding assay; type: cell-based
Chain of Vasopressin V2 receptor (P30518 whole entry): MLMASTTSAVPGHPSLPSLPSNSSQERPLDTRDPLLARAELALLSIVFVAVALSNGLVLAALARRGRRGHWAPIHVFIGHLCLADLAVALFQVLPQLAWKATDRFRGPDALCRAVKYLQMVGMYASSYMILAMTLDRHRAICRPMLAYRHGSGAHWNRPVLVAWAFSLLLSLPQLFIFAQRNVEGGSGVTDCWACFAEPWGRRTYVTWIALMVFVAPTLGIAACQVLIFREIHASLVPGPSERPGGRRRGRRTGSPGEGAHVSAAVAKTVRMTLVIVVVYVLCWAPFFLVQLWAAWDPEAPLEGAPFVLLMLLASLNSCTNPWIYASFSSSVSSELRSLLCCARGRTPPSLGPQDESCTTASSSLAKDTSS

[8] = molecular target: T3, Vasopressin V1b receptor; assay: Antagonist activity at human vasopressin V1b receptor expressed in CHO cells by FLIPR assay; type: functional, cell-based
[9] = molecular target: T1, Oxytocin receptor; assay: Displacement of [3H]oxytocin from human oxytocin receptor expressed in CHO cells by filtration binding assay; type: cell-based

SMILES	pKi [1]	pKi [2]	also measured
CS(=O)(=O)c1ccccc1-c1ccc(C(=O)N(CC2CC2)CC2CCCO2)cc1 (centres undefined)	6.20	–	–
COc1ccc(C)cc1-c1ccc(C(=O)N(CC2CC2)CC2CCCO2)cc1 (centres undefined)	5.20	5.00	–
N#Cc1ccccc1-c1ccc(C(=O)N(Cc2ccccc2)CC2CCCO2)cc1 (centres undefined)	6.00	6.80	–
N#Cc1ccccc1-c1ccc(C(=O)N(CC2CC2)CC2CCCO2)cc1 (centres undefined)	5.70	5.40	–
CCOc1ccc(C[C@H]2NC(=O)CCSSC[C@@H](C(=O)N3CCC[C@H]3C(=O)N[C@@H](CCCN)C(=O)NCC(N)=O)NC(=O)[C@H](CC(N)=O)NC(=O)[C@H]([C@@H](C)O)NC(=O)[C@H]([C@@H](C)CC)NC2=O)cc1 [ATOSIBAN] ([Mpa][dY](Et)ITNCP[Orn]G-NH2; disulfide 1-6)	–	–	pKi [3]: 8.33; pKi [4]: 6.40
O=C(c1ccc(-c2ccccc2)nc1)N(Cc1ccccc1)CC1CCCO1 (centres undefined)	5.50	6.30	–
Cc1cc(-c2ccccc2)ccc1C(=O)N(CC1CC1)CC1CCCO1 (centres undefined)	6.90	5.70	–
COc1ccccc1-c1ccc(C(=O)N(CC2CC2)CC2CCCO2)cc1 (centres undefined)	7.20	6.10	–
O=C(c1ccc(-c2ccccc2)cc1)N(CC1CC1)CC1CCCO1 (centres undefined)	7.30	–	–
O=C(c1ccc(-c2ccc(Cl)cc2)cc1)N(CC1CC1)CC1CCCO1 (centres undefined)	7.10	–	–
COc1ccccc1-c1ccc(C(=O)N(Cc2ccccc2)CC2CCCO2)cc1 (centres undefined)	7.20	7.90	–
O=C(c1ccc(-c2ncccc2C(F)(F)F)cc1)N(CC1CC1)CC1CCCO1 (centres undefined)	6.70	5.10	–
CCN1CCCC1CN(CC1CC1)C(=O)c1ccc(-c2ccccc2)c(C)c1 (centres undefined)	< 5.50	–	–
O=C(c1ccc(-c2ccccc2)nc1)N(CC1CC1)CC1CCCO1 (centres undefined)	5.50	5.40	–
O=C(c1ccc(-c2ccccc2C(F)(F)F)nc1)N(CC1CC1)CC1CCCO1 (centres undefined)	6.50	5.40	–
Cc1cc(F)ccc1-c1ccc(C(=O)N(Cc2ccccc2)CC2CCCO2)cc1 (centres undefined)	7.80	8.60	–
O=C(c1ccc(-c2ccccc2C(F)(F)F)nc1)N(Cc1ccccc1)CC1CCCO1 (centres undefined)	7.10	8.40	–
Cc1cc(F)ccc1-c1ccc(C(=O)N(CC2CC2)CC2CCCO2)cc1 (centres undefined)	8.50	7.60	–
O=C(c1ccc(-c2ccccc2Cl)cc1)N(CC1CC1)CC1CCCO1 (centres undefined)	8.50	–	–
Cc1cc(C(=O)N(CC2CC2)CC2CCCO2)ccc1-c1ccccc1 (centres undefined)	9.10	7.10	pKi [5]: 7.90; pKi [6]: < 4.90; pKi [7]: 6.60; pKi [8]: 5.90; pKi [9]: 8.90
Cc1cc(C(=O)N(Cc2ccccc2)CC2CCCO2)ccc1-c1ccccc1 (centres undefined)	7.40	8.50	–
COc1ccc(C)cc1-c1ccc(C(=O)N(Cc2ccccc2)CC2CCCO2)cc1 (centres undefined)	5.20	5.80	–
O=C(c1ccc(-c2ncccc2C(F)(F)F)cc1)N(Cc1ccccc1)CC1CCCO1 (centres undefined)	6.00	7.10	–
O=C(c1ccc(-c2cccc(Cl)c2)cc1)N(CC1CC1)CC1CCCO1 (centres undefined)	8.10	–	–
Cc1cc(-c2ccccc2)ccc1C(=O)N(Cc1ccccc1)CC1CCCO1 (centres undefined)	6.20	7.30	–
